Results on 30 molecules are retold here after patent US20130116231A1, “TYROSINE KINASE INHIBITORS” (Merck Sharp & Dohme Corp., priority 2010, published 2013).

For this assay, the target named is T1, human c-Met (Homo sapiens, UniProt P08581).
T1 construct: Recombinant GST-tagged cytosolic domains of human c-Met; 6xHis; made in house; host or cells: Sf9 or Sf21 insect cells (baculovirus)
In words: in vitro kinase assay (homogeneous time-resolved tyrosine kinase assay, METKA). Conditions: recombinant GST-tagged c-Met cytosolic domain, HTRF, 50 μM MgATP; read-out: Biological Activity (METKA IC50) Activity Code. Type of assay: biochemical. Summed up:
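HTRF assay with GST-tagged cytosolic c-Met domain (0.2 nM), 0.5 μM biotinylated peptide, 50 μM MgATP, pH 7.4, 5% DMSO, 80 min at room temperature; Eu-anti-pTyr/SA-APC detection, IC50 by 4-parameter fit. Other kinases identical except enzyme level: mouse c-Met 0.2, Ron 2.5, KDR 8, IGFR 0.24, EGFR 0.24, FGFR 0.14, Mer 16, TrkA 8, Tie2 8 nM.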

SMILES strings stand for the structures. Some results are limits rather than exact numbers.

T1 sequence (P08581 956-1390 limits assumed): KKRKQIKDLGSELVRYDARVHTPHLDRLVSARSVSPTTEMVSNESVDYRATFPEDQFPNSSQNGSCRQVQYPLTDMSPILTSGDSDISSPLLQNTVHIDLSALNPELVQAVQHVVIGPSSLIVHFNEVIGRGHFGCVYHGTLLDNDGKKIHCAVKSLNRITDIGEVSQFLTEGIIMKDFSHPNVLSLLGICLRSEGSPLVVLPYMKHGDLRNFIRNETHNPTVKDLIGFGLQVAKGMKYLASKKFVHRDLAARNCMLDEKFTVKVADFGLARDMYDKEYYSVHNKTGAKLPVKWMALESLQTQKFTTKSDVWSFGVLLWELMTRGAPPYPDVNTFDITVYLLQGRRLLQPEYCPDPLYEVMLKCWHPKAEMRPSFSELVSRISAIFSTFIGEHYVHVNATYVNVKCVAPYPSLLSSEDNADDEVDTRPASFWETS

Turning to `Cn1cc(-n2ccc(=O)c(COc3ccc4ncsc4c3)n2)cn1` [Example 105, 3-[(1,3-Benzothiazol-6-yloxy)methyl]-1-(1-methyl-1H-pyrazol-4-yl)pyridazin-4(1H)-one], the IC50 is below 0.1 µM. On to `COCCOc1cnc2ccc(OCc3nn(-c4cnn(C)c4)ccc3=O)cc2n1` [Example 106, 3-({[3-(2-methoxyethoxy)quinoxalin-6-yl]oxy}methyl)-1-(1-methyl-1H-pyrazol-4-yl)pyridazin-4(1H)-one], for which the IC50 is below 0.1 µM. In the case of `Cn1cc(-n2ccc(=O)c(COc3ccc4ncc5c(c4c3)OCCO5)n2)cn1` [Example 107, 3-[(2,3-dihydro[1,4]dioxino[2,3-c]quinolin-9-yloxy)methyl]-1-(1-methyl-1H-pyrazol-4-yl)pyridazin-4(1H)-one] it was below 0.1 µM; in that of `CN(Cc1nn(-c2cnn(C)c2)ccc1=O)c1ccc2ncccc2c1` [Example 108, 1-(1-Methyl-1H-pyrazol-4-yl)-3-{[methyl(quinolin-6-yl)amino]methyl}pyridazin-4(1H)-one], below 0.1 µM.

On to `Cn1cc(-n2ccc(=O)c(COc3ccc4ncc(C(=O)N5CCOCC5)cc4c3)n2)cn1` [Example 109, 1-(1-methyl-1H-pyrazol-4-yl)-3-({[3-(morpholin-4-ylcarbonyl)quinolin-6-yl]oxy}methyl)pyridazin-4(1H)-one], for which the IC50 is 1 to 3 µM. As for `Cn1cc(-n2ccc(=O)c(COc3ccc4ncc(NC(=O)OC(C)(C)C)cc4c3)n2)cn1` [Example 110, tert-butyl (6-{[1-(1-methyl-1H-pyrazol-4-yl)-4-oxo-1,4-dihydropyridazin-3-yl]methoxy}quinolin-3-yl)carbamate], the IC50 was below 0.1 µM. The value for `Cn1cc(-n2ccc(=O)c(COc3ccc4ncc(NC(=O)Nc5cnc6ccc(OCc7nn(-c8cnn(C)c8)ccc7=O)cc6c5)cc4c3)n2)cn1` [Example 111, 1,3-bis(6-{[1-(1-methyl-1H-pyrazol-4-yl)-4-oxo-1,4-dihydropyridazin-3-yl]methoxy}quinolin-3-yl)urea] was below 0.1 µM.

Consider `Cn1cc(-n2ccc(=O)c(COc3ccc4ncc(N)cc4c3)n2)cn1` [Example 112, 3-{[(3-Aminoquinolin-6-yl)oxy]methyl}-1-(1-methyl-1H-pyrazol-4-yl)pyridazin-4(1H)-one], for which the IC50 was below 0.1 µM. Regarding `Cn1cc(-n2ccc(=O)c(COc3ccc(N)cc3)n2)cn1` [Example 115, 3-((4-aminophenoxy)methyl)-1-(1-methyl-1H-pyrazol-4-yl)pyridazin-4(1H)-one], the IC50 was 0.1 to 1 µM. The value for `Cn1cc(-n2ccc(=O)c(COc3ccc(NCCCCO)cc3)n2)cn1` [Example 116, 3-((4-(4-hydroxybutylamino)phenoxy)methyl)-1-(1-methyl-1H-pyrazol-4-yl)pyridazin-4(1H)-one] was 1 to 3 µM; that for `Cn1cc(-n2ccc(=O)c(CCc3ccc(N)cc3)n2)cn1` [Example 117, 3-[2-(4-aminophenyl)ethyl]-1-(1-methyl-1H-pyrazol-4-yl)pyridazin-4(1H)-one] was 1 to 3 µM; that for `Cn1cc(-n2ccc(=O)c(CCc3ccc(NCCCCO)cc3)n2)cn1` [Example 118, 3-(2-{4-[(4-hydroxybutyl)amino]phenyl}ethyl)-1-(1-methyl-1H-pyrazol-4-yl)pyridazin-4(1H)-one] was 0.1 to 1 µM. In the case of `COCCOC(=O)Nc1ccc(OCc2nn(-c3cnn(C)c3)ccc2=O)cc1` [Example 119, 2-methoxyethyl (4-{[1-(1-methyl-1H-pyrazol-4-yl)-4-oxo-1,4-dihydropyridazin-3-yl]methoxy}phenyl)carbamate] it was 1 to 3 µM. Take `COCCOC(=O)Nc1ccc(CCc2nn(-c3cnn(C)c3)ccc2=O)cc1` [Example 120, 2-methoxyethyl (4-{2-[1-(1-methyl-1H-pyrazol-4-yl)-4-oxo-1,4-dihydropyridazin-3-yl]ethyl}phenyl)carbamate]: the IC50 is 1 to 3 µM.

In the case of `CCOC(=O)Nc1ccc(CCc2nn(-c3cnn(C)c3)ccc2=O)cc1` [Example 121, ethyl (4-{2-[1-(1-methyl-1H-pyrazol-4-yl)-4-oxo-1,4-dihydropyridazin-3-yl]ethyl}phenyl)carbamate], the IC50 was in the range of 1 to 3 µM. In the case of `CCOC(=O)Nc1ccc(OCc2nn(-c3cnn(C)c3)ccc2=O)cc1` [Example 122, ethyl (4-{[1-(1-methyl-1H-pyrazol-4-yl)-4-oxo-1,4-dihydropyridazin-3-yl]methoxy}phenyl)carbamate] it was 0.1 to 1 µM; in that of `CC(C)COC(=O)Nc1ccc(OCc2nn(-c3cnn(C)c3)ccc2=O)cc1` [Example 123, 2-methylpropyl (4-{[1-(1-methyl-1H-pyrazol-4-yl)-4-oxo-1,4-dihydropyridazin-3-yl]methoxy}phenyl)carbamate], 1 to 3 µM; in that of `C=C(Cc1nn(-c2cnn(C)c2)ccc1=O)c1ccc2ncccc2c1` [Example 124, 1-(1-Methyl-1H-pyrazol-4-yl)-3-(2-quinolin-6-ylprop-2-en-1-yl)pyridazin-4(1H)-one], 0.1 to 1 µM.

With `Cn1cc(-n2ccc(=O)c(OCc3ccc4ncccc4c3)n2)cn1` [Example 127, 1-(1-Methyl-1H-pyrazol-4-yl)-3-(quinolin-6-ylmethoxy)pyridazin-4(1H)-one], the IC50 is 1 to 3 µM. Take `CCn1cc(-n2ccc(=O)c(OCc3ccc4ncccc4c3)n2)cn1` [Example 128, 1-(1-ethyl-1H-pyrazol-4-yl)-3-(quinolin-6-ylmethoxy)pyridazin-4(1H)-one]: the IC50 is 0.1 to 1 µM. In the case of `Cn1cc(-c2cnc3ccc(COc4nn(-c5cnn(C)c5)ccc4=O)cc3c2)cn1` [Example 129, 1-(1-methyl-1H-pyrazol-4-yl)-3-{[3-(1-methyl-1H-pyrazol-4-yl)quinolin-6-yl]methoxy}pyridazin-4(1H)-one] it was below 0.1 µM. Take `CC(Oc1nn(-c2cnn(C)c2)ccc1=O)c1ccc2ncccc2c1` (stereo not drawn) [Example 130, 1-(1-methyl-1H-pyrazol-4-yl)-3-(1-quinolin-6-ylethoxy)pyridazin-4(1H)-one]: the IC50 was in the range of 0.1 to 1 µM. The value for `COc1ccnc2ccc(C(C)Oc3nn(-c4cnn(C)c4)ccc3=O)cc12` (stereo not drawn) [Example 131, 3-[1-(4-methoxyquinolin-6-yl)ethoxy]-1-(1-methyl-1H-pyrazol-4-yl)pyridazin-4(1H)-one] was 0.1 to 1 µM. The value for `CCn1cc(-n2ccc(=O)c(OC(C)c3ccc4nccc(OC)c4c3)n2)cn1` (stereo not drawn) [Example 132, 1-(1-ethyl-1H-pyrazol-4-yl)-3-[1-(4-methoxyquinolin-6-yl)ethoxy]pyridazin-4(1H)-one] was below 0.1 µM; that for `CC(Oc1nn(-c2cnn(C)c2)ccc1=O)c1ccc2ncc(-c3cnn(C)c3)cc2c1` (stereo not drawn) [Example 136, 1-(1-methyl-1H-pyrazol-4-yl)-3-{1-[3-(1-methyl-1H-pyrazol-4-yl)quinolin-6-yl]ethoxy}pyridazin-4(1H)-one] was below 0.1 µM.

`COc1ccnc2ccc(COc3nn(-c4cnn(C)c4)ccc3=O)cc12` [Example 137, 3-[(4-methoxyquinolin-6-yl)methoxy]-1-(1-methyl-1H-pyrazol-4-yl)pyridazin-4(1H)-one]: the concentration for half-maximal inhibition (IC50) lay in the range of 1 to 3 µM.

Turning to `Cn1cc(-n2ccc(=O)c(NCc3ccc4ncccc4c3)n2)cn1` [Example 147, 1-(1-methyl-1H-pyrazol-4-yl)-3-[(quinolin-6-ylmethyl)amino]pyridazin-4(1H)-one], the IC50 was in the range of 0.1 to 1 µM. The value for `CC(Nc1nn(-c2cnn(C)c2)ccc1=O)c1ccc2ncccc2c1` (stereo not drawn) [Example 148] was below 0.1 µM. As for `Cn1cc(-n2ccc(=O)c(SCc3ccc4ncccc4c3)n2)cn1` [Example 149, 1-(1-methyl-1H-pyrazol-4-yl)-3-[(quinolin-6-ylmethyl)thio]pyridazin-4(1H)-one], the IC50 is below 0.1 µM.

Take `COC(=O)C(Cc1nn(-c2cnn(C)c2)ccc1=O)c1ccc2ncccc2c1` (stereo not drawn) [Example 150, Methyl 3-[1-(1-methyl-1H-pyrazol-4-yl)-4-oxo-1,4-dihydropyridazin-3-yl]-2-(quinolin-6-yl)propanoate]: the IC50 lay in the range of 1 to 3 µM.
